This passage reports EC50 results from patent US20240270821A1, “GIP/GLP1/GCG TRI-RECEPTOR AGONISTS AND USES THEREOF” (priority 2023, published 2024).

What all share (type): cell-based
Assay [1] has as its target T1, hGIPR (Homo sapiens, UniProt P48546).
T1 sequence (P48546 22-466): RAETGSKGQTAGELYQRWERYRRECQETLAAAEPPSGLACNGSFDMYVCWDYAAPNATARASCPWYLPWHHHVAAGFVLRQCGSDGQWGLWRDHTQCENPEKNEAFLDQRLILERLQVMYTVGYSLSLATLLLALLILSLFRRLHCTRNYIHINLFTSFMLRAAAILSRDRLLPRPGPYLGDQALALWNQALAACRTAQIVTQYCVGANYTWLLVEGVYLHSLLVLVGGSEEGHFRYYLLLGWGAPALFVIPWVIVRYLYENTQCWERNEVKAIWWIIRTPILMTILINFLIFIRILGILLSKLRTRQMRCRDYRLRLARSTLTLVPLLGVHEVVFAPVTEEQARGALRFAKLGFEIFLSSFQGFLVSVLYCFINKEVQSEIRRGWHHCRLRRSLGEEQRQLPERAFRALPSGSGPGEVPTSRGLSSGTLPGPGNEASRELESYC
Description: Functional cAMP activity in the presence of 1% HSA. Conditions: read-out: cAMP Rel EC50, hGIPR.

Assay [2] addresses T2, hGLP-1R (Homo sapiens, UniProt P43220). Description: Functional cAMP activity in the presence of 1% HSA. Particulars: read-out: cAMP Rel EC50, hGLP-1R.
The next assay addresses human GcgR (Homo sapiens, UniProt P47871). The experiment in a line: Functional cAMP activity in the presence of 1% HSA. Conditions: read-out: cAMP Rel EC50, hGcgR.
Assay [3] addresses T1, hGIPR. The experiment in a line: Functional cAMP activation in the presence of 0.1% casein (no HSA). Particulars: read-out: Relative cAMP EC50, hGIPR.
Assay [4] addresses T2, hGLP-1R. Described as above. Particulars: read-out: Relative cAMP EC50, hGLP-1R.
The next assay deals with hGcgR (Homo sapiens, UniProt P47871). The description is as above. Conditions: read-out: Relative cAMP EC50, hGcgR.
hGcgR, sequence (P47871 26-477): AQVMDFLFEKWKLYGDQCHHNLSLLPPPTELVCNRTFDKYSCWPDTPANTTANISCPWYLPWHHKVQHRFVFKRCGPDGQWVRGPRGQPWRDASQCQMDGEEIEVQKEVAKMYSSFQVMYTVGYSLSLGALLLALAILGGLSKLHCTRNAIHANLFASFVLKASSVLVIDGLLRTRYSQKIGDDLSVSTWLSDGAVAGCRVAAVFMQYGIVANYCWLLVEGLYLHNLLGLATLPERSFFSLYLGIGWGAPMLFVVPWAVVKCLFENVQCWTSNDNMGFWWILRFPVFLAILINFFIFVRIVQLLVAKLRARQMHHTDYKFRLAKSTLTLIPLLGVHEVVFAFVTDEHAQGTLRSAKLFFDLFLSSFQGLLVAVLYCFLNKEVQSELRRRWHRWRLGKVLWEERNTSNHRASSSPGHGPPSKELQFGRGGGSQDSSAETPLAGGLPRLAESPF

The structures appear in SMILES notation. Starred links: 1 amine or outer side, 2 acyl side, 3 side chain; linkers in the order of their positions; H or OH if unused. Non-standard residues stand in square brackets, D forms with d. Residues, ends and D or L forms follow the SMILES beside them. Groups on a side chain read outwards from the residue. *: point of attachment. C18 diacid = O=C(O)CCCCCCCCCCCCCCCCC(=O)*; αMePhe(2-F) = C[C@](N)(Cc1ccccc1F)C(=O)O; γGlu = O=C(O)[C@H](CCC(=O)[*:2])N[*:1]; αMeF = C[C@](N)(Cc1ccccc1)C(=O)O; 4Pal = N[C@@H](Cc1ccncc1)C(=O)O; αMeL = CC(C)C[C@](C)(N)C(=O)O; αMeS = C[C@](N)(CO)C(=O)O; Orn = NCCC[C@H](N)C(=O)O; AEEA = NCCOCCOCC(=O)O; Aib = CC(C)(N)C(=O)O
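Throughout, for Relative cAMP EC50, hGIPR: intracellular cAMP rise after 30 min at 37 °C read by HTRF against a standard curve, scaled between buffer alone (0%) and top control ligand concentration (100%), four-parameter fit.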
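Throughout, for Relative cAMP EC50, hGLP-1R: intracellular cAMP rise after 30 min at 37 °C read by HTRF, normalized between buffer only (0%) and maximal control ligand (100%), four-parameter variable-slope fit.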
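Throughout, for Relative cAMP EC50, hGcgR: intracellular cAMP rise after 30 min at 37 °C, read by HTRF against a cAMP standard curve, scaled from buffer only (0%) to maximal control ligand response (100%).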

T2 sequence (P43220 24-463): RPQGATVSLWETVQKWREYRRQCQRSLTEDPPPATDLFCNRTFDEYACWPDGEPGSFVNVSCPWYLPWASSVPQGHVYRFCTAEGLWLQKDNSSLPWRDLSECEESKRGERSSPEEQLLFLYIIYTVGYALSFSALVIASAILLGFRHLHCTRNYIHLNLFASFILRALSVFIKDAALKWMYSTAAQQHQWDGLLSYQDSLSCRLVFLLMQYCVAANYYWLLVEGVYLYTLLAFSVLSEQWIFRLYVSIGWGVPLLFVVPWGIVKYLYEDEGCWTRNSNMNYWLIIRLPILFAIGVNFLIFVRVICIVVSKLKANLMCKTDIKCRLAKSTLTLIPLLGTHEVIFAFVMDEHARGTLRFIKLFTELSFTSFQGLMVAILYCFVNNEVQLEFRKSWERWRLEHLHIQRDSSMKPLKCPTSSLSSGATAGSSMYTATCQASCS
human GcgR, sequence (P47871 26-477): as the sequence (P47871 26-477) above

As usually defined, the EC50 is the concentration giving half of the maximal effect. As for `CC[C@H](C)[C@H](NC(=O)[C@H](Cc1ccccc1)NC(=O)[C@H](C)NC(=O)C(C)(C)NC(=O)[C@H](CCC(N)=O)NC(=O)[C@H](C)NC(=O)[C@H](CCCCNC(=O)COCCOCCNC(=O)CC[C@H](NC(=O)CCCCCCCCCCCCCCCCC(=O)O)C(=O)O)NC(=O)[C@H](CCCN)NC(=O)[C@H](CC(=O)O)NC(=O)[C@H](CC(C)C)NC(=O)[C@](C)(CC(C)C)NC(=O)[C@@H](NC(=O)[C@](C)(CO)NC(=O)[C@H](Cc1ccc(O)cc1)NC(=O)[C@H](CC(=O)O)NC(=O)[C@H](CO)NC(=O)[C@@H](NC(=O)[C@](C)(Cc1ccccc1)NC(=O)[C@@H](NC(=O)CNC(=O)[C@H](CCC(N)=O)NC(=O)C(C)(C)NC(=O)[C@@H](N)Cc1ccc(O)cc1)[C@@H](C)O)[C@@H](C)O)[C@@H](C)CC)C(=O)N[C@H](CCC(=O)O)C(=O)N[C@@H](Cc1ccc(O)cc1)C(=O)N[C@@H](CC(C)C)C(=O)N[C@@H](CC(C)C)C(=O)N[C@@H](CCC(=O)O)C(=O)NCC(=O)NCC(=O)N1CCC[C@H]1C(=O)N[C@@H](CO)C(=O)N[C@@H](CO)C(=O)NCC(=O)N[C@@H](CCC(=O)O)C(=O)N1CCC[C@H]1C(=O)N1CCC[C@H]1C(=O)N1CCC[C@H]1C(=O)N[C@@H](CCC(=O)O)C(N)=O` [Example 420] (H-Y[Aib]QGT[αMeF]TSDY[αMeS]I[αMeL]LD[Orn]K([AEEA-γGlu-C18 diacid])AQ[Aib]AFI[dE]YLLEGGPSSGEPPPE-NH2), the EC50 turned out to be 2.61 nM at hGIPR [1]; 31.3 nM on hGLP-1R [2]; 433 nM at human GcgR; 0.0131 nM on hGIPR [3]; 0.205 nM at hGLP-1R [4]; 2.49 nM at hGcgR.

Turning to `CC[C@H](C)[C@H](NC(=O)[C@H](Cc1ccccc1)NC(=O)[C@H](C)NC(=O)C(C)(C)NC(=O)[C@H](CCC(N)=O)NC(=O)[C@H](C)NC(=O)[C@H](CCCCNC(=O)COCCOCCNC(=O)CC[C@H](NC(=O)CCCCCCCCCCCCCCCCC(=O)O)C(=O)O)NC(=O)[C@H](CCCCN)NC(=O)[C@H](CC(=O)O)NC(=O)[C@H](CC(C)C)NC(=O)[C@](C)(CC(C)C)NC(=O)[C@@H](NC(=O)[C@H](CO)NC(=O)[C@H](Cc1ccc(O)cc1)NC(=O)[C@H](CC(=O)O)NC(=O)[C@H](CO)NC(=O)[C@@H](NC(=O)[C@](C)(Cc1ccccc1F)NC(=O)[C@@H](NC(=O)CNC(=O)[C@H](CCC(N)=O)NC(=O)C(C)(C)NC(=O)[C@@H](N)Cc1ccc(O)cc1)[C@@H](C)O)[C@@H](C)O)[C@@H](C)CC)C(=O)N[C@@H](CCC(=O)O)C(=O)N[C@@H](Cc1ccc(O)cc1)C(=O)N[C@@H](CC(C)C)C(=O)N[C@@H](CCC(=O)O)C(=O)N[C@@H](CCC(=O)O)C(=O)NCC(=O)NCC(=O)N1CCC[C@H]1C(=O)N[C@@H](CO)C(=O)N[C@@H](CO)C(=O)NCC(=O)N[C@@H](C)C(=O)N1CCC[C@H]1C(=O)N1CCC[C@H]1C(=O)N1CCC[C@H]1C(=O)N[C@@H](CO)C(N)=O` [Example 421] (H-Y[Aib]QGT[αMePhe(2-F)]TSDYSI[αMeL]LDKK([AEEA-γGlu-C18 diacid])AQ[Aib]AFIEYLEEGGPSSGAPPPS-NH2), the EC50 worked out at 2.98 nM on hGIPR [1]; 31.9 nM on hGLP-1R [2]; 468 nM on human GcgR; 0.0132 nM on hGIPR [3]; 0.21 nM on hGLP-1R [4]; 3.25 nM at hGcgR.

For the molecule `CC[C@H](C)[C@H](NC(=O)[C@H](Cc1ccccc1)NC(=O)[C@H](C)NC(=O)C(C)(C)NC(=O)[C@H](CCC(N)=O)NC(=O)[C@H](C)NC(=O)[C@H](CCCCNC(=O)COCCOCCNC(=O)CC[C@H](NC(=O)CCCCCCCCCCCCCCCCC(=O)O)C(=O)O)NC(=O)[C@H](CCCCN)NC(=O)[C@H](CC(=O)O)NC(=O)[C@H](CC(C)C)NC(=O)[C@](C)(CC(C)C)NC(=O)[C@@H](NC(=O)[C@H](CO)NC(=O)[C@H](Cc1ccncc1)NC(=O)[C@H](CC(=O)O)NC(=O)[C@H](CO)NC(=O)[C@@H](NC(=O)[C@](C)(Cc1ccccc1F)NC(=O)[C@@H](NC(=O)CNC(=O)[C@H](CCC(N)=O)NC(=O)C(C)(C)NC(=O)[C@@H](N)Cc1ccc(O)cc1)[C@@H](C)O)[C@@H](C)O)[C@@H](C)CC)C(=O)N[C@@H](CCC(=O)O)C(=O)N[C@@H](Cc1ccc(O)cc1)C(=O)N[C@@H](CC(C)C)C(=O)N[C@@H](CCC(=O)O)C(=O)N[C@@H](CCC(=O)O)C(=O)NCC(=O)NCC(=O)N1CCC[C@H]1C(=O)N[C@@H](CO)C(=O)N[C@@H](CO)C(=O)NCC(=O)N[C@@H](C)C(=O)N1CCC[C@H]1C(=O)N1CCC[C@H]1C(=O)N1CCC[C@H]1C(=O)N[C@@H](CO)C(N)=O` [Example 422] (H-Y[Aib]QGT[αMePhe(2-F)]TSD[4Pal]SI[αMeL]LDKK([AEEA-γGlu-C18 diacid])AQ[Aib]AFIEYLEEGGPSSGAPPPS-NH2), the EC50 worked out at 4.4 nM at hGIPR [1]; 27.1 nM at hGLP-1R [2]; 493 nM on human GcgR; 0.0216 nM at hGIPR [3]; 0.252 nM on hGLP-1R [4]; 14.5 nM at hGcgR.

In the case of `CC[C@H](C)[C@H](NC(=O)[C@H](Cc1ccccc1)NC(=O)[C@H](C)NC(=O)C(C)(C)NC(=O)[C@H](CCC(N)=O)NC(=O)[C@H](C)NC(=O)[C@H](CCCCNC(=O)COCCOCCNC(=O)CC[C@H](NC(=O)CCCCCCCCCCCCCCCCC(=O)O)C(=O)O)NC(=O)[C@H](CCCCN)NC(=O)[C@H](CC(=O)O)NC(=O)[C@H](CC(C)C)NC(=O)[C@](C)(CC(C)C)NC(=O)[C@@H](NC(=O)[C@H](CO)NC(=O)[C@H](Cc1ccc(O)cc1)NC(=O)[C@H](CC(=O)O)NC(=O)[C@H](CO)NC(=O)[C@@H](NC(=O)[C@](C)(Cc1ccccc1F)NC(=O)[C@@H](NC(=O)CNC(=O)[C@H](CCC(N)=O)NC(=O)C(C)(C)NC(=O)[C@@H](N)Cc1ccc(O)cc1)[C@@H](C)O)[C@@H](C)O)[C@@H](C)CC)C(=O)N[C@@H](CCC(=O)O)C(=O)N[C@@H](Cc1ccc(O)cc1)C(=O)N[C@@H](CC(C)C)C(=O)N[C@@H](CCC(=O)O)C(=O)N[C@@H](CCC(=O)O)C(=O)NCC(=O)NCC(=O)N1CCC[C@H]1C(=O)N[C@@H](CO)C(=O)N[C@@H](CO)C(=O)NCC(=O)N[C@@H](C)C(=O)N1CCC[C@H]1C(=O)N[C@@H](CCC(=O)O)C(=O)N1CCC[C@H]1C(=O)N[C@@H](CO)C(N)=O` [Example 423] (H-Y[Aib]QGT[αMePhe(2-F)]TSDYSI[αMeL]LDKK([AEEA-γGlu-C18 diacid])AQ[Aib]AFIEYLEEGGPSSGAPEPS-NH2), the EC50 was determined as 3.07 nM on hGIPR [1]; 28.7 nM at hGLP-1R [2]; 319 nM at human GcgR; 0.0114 nM at hGIPR [3]; 0.194 nM on hGLP-1R [4]; 1.92 nM on hGcgR.

As to `CC[C@H](C)[C@H](NC(=O)[C@H](Cc1ccccc1)NC(=O)[C@H](C)NC(=O)C(C)(C)NC(=O)[C@H](CCC(N)=O)NC(=O)[C@H](C)NC(=O)[C@H](CCCCNC(=O)COCCOCCNC(=O)CC[C@H](NC(=O)CCCCCCCCCCCCCCCCC(=O)O)C(=O)O)NC(=O)[C@H](CCCCN)NC(=O)[C@H](CC(=O)O)NC(=O)[C@H](CC(C)C)NC(=O)[C@](C)(CC(C)C)NC(=O)[C@@H](NC(=O)[C@H](CO)NC(=O)[C@H](Cc1ccc(O)cc1)NC(=O)[C@H](CC(=O)O)NC(=O)[C@H](CO)NC(=O)[C@@H](NC(=O)[C@](C)(Cc1ccccc1F)NC(=O)[C@@H](NC(=O)CNC(=O)[C@H](CCC(N)=O)NC(=O)C(C)(C)NC(=O)[C@@H](N)Cc1ccc(O)cc1)[C@@H](C)O)[C@@H](C)O)[C@@H](C)CC)C(=O)N[C@@H](CCC(=O)O)C(=O)N[C@@H](Cc1ccc(O)cc1)C(=O)N[C@@H](CC(C)C)C(=O)N[C@@H](CCC(=O)O)C(=O)N[C@@H](CCC(=O)O)C(=O)NCC(=O)NCC(=O)N1CCC[C@H]1C(=O)N[C@@H](CO)C(=O)N[C@@H](CO)C(=O)NCC(=O)N[C@@H](C)C(=O)N1CCC[C@H]1C(=O)N1CCC[C@H]1C(=O)N1CCC[C@H]1C(=O)N[C@@H](CO)C(=O)N[C@@H](CCC(=O)O)C(N)=O` [Example 424] (H-Y[Aib]QGT[αMePhe(2-F)]TSDYSI[αMeL]LDKK([AEEA-γGlu-C18 diacid])AQ[Aib]AFIEYLEEGGPSSGAPPPSE-NH2), the concentration giving a half-maximal response (EC50) came out at 3.21 nM at hGIPR [1]; 29.5 nM at hGLP-1R [2]; 443 nM at human GcgR; 0.0154 nM on hGIPR [3]; 0.318 nM at hGLP-1R [4]; 3.12 nM at hGcgR.
